Literature values, collected in patent US20200399681A1, “ASSAY FOR DETECTION OF ANDROGEN RECEPTOR VARIANTS” (Cornell University, priority 2018, published 2020).
Where two headings read alike, the source gives them in different places.

What was measured:
prostate cancer patients [1] = test system: prostate cancer patients
prostate cancer patients [2] = test system: prostate cancer patients; remark: listed apart in the source

CNC(=O)c1ccc(N2C(=S)N(c3ccc(C#N)c(C(F)(F)F)c3)C(=O)C2(C)C)cc1F [enza, enzalutamide]
PSA progression-free survival, median (prostate cancer patients [1]; AR-V7- (negative) pts): 6.0 months; P < 0.001) & | overall survival (OS), median (prostate cancer patients [1]; AR-V7- (negative) pts): not reached | overall survival (OS), median (prostate cancer patients [1]; AR-V7-positive pts): 5.5 months | PSA response rates, AR-V7-positive pts compared with AR-V7- pts (prostate cancer patients [1]; AR-V7-positive vs AR-V7- pts): positive pts had lower PSA | adjusted HR for AR-V7 (TTF, multivariable analysis) (prostate cancer patients [2]; high AR-V7 expression, adjusted for covariates): cohort (adjusted HR = 2.02 | median OS (prostate cancer patients [2]; pts with high AR-V7 expression (the shorter OS)): 13.8 months | time to treatment failure (TTF), median (prostate cancer patients [2]; pts with high AR-V7 expression (top tertile, >19 copies/mg RNA)): P = 0.046) and median 3.6 months | median OS (prostate cancer patients [2]; pts without high AR-V7 expression): 29.1 months
